Measured values published in ChEMBL document CHEMBL5212743, “Selectivity Literature for EUbOPEN Chemogenomics Library wave 3” (2023).

What was measured:
[1] = target: T1, Sodium/nucleoside cotransporter 2 (Homo sapiens, UniProt O43868); assay: Selectivity interaction (Enzymatic assay (PanLabs Profiling)) EUB0000715a SLC28A2
T1 sequence (O43868 whole entry): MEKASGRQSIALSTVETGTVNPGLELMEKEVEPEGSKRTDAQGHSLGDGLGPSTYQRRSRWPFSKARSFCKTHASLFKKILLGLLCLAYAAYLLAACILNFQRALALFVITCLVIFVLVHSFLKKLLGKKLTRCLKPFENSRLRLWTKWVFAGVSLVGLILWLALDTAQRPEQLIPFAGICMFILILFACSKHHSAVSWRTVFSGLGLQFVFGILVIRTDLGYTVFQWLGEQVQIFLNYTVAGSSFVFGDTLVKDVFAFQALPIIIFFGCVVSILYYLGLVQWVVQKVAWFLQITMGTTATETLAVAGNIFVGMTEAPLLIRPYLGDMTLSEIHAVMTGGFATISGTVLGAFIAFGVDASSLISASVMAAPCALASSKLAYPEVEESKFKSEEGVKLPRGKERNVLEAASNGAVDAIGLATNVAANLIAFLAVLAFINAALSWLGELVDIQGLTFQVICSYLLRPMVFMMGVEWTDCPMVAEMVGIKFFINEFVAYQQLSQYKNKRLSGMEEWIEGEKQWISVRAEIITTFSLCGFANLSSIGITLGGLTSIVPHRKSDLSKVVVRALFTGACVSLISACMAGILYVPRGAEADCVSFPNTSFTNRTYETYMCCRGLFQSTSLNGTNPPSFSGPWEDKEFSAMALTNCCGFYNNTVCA

[2] = target: Epidermal growth factor receptor (Homo sapiens, UniProt P00533); assay: Selectivity interaction (KinomeScan (DiscoverX)) EUB0000715a EGFR; details: at 100 nM
[3] = target: T2, Tyrosine-protein kinase JAK3 (Homo sapiens) (UniProt P52333); assay: Selectivity interaction (KinomeScan (DiscoverX)) EUB0000715a JAK3; details: at 100 nM
T2 sequence (whole entry): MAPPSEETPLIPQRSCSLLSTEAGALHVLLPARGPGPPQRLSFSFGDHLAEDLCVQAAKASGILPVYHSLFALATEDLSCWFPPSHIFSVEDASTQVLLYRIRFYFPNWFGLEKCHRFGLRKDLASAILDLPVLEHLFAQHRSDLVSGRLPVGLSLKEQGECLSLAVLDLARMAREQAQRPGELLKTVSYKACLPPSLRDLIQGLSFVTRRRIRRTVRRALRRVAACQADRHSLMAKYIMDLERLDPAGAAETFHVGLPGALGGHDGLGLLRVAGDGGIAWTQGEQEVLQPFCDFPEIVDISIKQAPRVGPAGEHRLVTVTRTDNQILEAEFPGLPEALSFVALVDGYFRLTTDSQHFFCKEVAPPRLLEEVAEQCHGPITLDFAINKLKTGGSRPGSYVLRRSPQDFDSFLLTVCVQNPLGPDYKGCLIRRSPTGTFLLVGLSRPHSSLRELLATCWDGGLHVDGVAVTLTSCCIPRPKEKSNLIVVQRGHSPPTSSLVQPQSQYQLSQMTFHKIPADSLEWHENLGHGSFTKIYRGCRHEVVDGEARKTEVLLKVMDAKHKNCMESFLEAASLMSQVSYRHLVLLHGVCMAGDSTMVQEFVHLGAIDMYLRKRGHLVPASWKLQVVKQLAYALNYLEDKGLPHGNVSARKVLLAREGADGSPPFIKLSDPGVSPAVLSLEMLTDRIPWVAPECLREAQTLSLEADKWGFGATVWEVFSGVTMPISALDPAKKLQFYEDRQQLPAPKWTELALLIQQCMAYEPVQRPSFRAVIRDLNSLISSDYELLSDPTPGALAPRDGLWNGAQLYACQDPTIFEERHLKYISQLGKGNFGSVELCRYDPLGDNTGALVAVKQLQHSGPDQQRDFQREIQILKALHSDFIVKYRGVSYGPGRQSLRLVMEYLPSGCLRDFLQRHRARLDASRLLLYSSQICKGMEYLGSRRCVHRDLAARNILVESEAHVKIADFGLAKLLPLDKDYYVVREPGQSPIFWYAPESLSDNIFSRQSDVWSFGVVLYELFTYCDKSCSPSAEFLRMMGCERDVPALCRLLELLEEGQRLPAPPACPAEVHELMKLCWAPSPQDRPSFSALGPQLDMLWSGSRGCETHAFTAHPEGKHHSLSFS

[4] = target: T3, Mitogen-activated protein kinase kinase kinase 13 (Homo sapiens) (UniProt O43283); assay: Selectivity interaction (KinomeScan (DiscoverX)) EUB0000715a MAP3K13; details: at 100 nM
T3 sequence (whole entry): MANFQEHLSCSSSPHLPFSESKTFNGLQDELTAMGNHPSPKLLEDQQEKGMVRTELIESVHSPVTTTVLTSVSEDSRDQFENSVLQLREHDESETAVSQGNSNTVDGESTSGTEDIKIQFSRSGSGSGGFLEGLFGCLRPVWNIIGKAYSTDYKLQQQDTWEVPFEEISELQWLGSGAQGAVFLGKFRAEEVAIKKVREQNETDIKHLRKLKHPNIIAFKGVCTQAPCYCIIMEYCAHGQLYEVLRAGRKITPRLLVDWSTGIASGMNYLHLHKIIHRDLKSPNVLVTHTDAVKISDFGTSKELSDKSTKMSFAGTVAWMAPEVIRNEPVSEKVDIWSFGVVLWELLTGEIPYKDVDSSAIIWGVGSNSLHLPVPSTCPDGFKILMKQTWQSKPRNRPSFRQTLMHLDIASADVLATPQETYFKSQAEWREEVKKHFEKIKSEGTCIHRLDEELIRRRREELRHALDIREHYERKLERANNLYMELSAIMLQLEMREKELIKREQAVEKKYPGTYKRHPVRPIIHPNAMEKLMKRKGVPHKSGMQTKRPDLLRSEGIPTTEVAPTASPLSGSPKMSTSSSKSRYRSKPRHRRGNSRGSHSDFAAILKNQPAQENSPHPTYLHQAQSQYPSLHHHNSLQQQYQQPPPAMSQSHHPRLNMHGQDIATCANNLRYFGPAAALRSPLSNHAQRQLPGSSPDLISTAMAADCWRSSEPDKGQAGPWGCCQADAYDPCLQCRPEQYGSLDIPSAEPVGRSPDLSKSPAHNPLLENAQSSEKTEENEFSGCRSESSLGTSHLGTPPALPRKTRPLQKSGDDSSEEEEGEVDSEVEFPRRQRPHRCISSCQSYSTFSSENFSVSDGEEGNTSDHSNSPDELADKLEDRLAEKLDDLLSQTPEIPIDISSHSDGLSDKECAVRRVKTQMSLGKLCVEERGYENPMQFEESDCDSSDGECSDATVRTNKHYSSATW

Epidermal growth factor receptor, sequence (P00533 whole entry): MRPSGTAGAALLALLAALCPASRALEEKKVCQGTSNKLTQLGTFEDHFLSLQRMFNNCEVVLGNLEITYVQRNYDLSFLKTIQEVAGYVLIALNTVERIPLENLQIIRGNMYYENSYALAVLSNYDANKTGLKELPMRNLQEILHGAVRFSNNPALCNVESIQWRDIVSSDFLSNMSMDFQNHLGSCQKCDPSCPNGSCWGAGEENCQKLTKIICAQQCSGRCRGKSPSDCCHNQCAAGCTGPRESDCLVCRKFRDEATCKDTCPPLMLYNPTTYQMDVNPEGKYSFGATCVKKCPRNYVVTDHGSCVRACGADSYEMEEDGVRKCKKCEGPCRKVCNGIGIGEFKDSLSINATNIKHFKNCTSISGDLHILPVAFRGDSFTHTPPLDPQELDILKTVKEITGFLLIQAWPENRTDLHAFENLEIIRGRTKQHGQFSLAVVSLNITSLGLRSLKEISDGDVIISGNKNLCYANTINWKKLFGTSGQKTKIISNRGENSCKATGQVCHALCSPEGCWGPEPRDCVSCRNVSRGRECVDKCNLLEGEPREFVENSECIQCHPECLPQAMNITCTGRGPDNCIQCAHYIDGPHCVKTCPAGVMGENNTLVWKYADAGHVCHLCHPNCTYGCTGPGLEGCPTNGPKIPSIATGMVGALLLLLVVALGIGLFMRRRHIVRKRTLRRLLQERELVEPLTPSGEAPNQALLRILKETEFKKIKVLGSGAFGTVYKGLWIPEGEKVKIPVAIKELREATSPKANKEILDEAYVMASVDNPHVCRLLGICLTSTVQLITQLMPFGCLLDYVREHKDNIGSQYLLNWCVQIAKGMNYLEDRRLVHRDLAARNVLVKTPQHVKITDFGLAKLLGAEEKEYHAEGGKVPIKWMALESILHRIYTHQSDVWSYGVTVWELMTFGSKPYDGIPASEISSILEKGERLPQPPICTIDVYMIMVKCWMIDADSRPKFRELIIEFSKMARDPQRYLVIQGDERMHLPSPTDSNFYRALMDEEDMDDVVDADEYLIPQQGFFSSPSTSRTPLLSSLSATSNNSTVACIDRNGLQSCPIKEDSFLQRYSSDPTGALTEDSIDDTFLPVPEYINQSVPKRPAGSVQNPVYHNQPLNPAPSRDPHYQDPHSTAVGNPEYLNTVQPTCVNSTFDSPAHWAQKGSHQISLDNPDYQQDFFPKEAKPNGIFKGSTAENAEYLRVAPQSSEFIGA

IC50 [1]: 9.7 µM | % of control [2]: 43% | % of control [3]: 0% | % of control [4]: 0%
Compound: C[C@@H]1CN(c2cc(-c3n[nH]c4ccc(OC5(C)CC5)cc34)ncn2)C[C@H](C)O1 [MLi-2]
